13 molecules from ChEMBL document CHEMBL1143974, “Synthesis and cyclooxygenase inhibitory activities of linear 1-(methanesulfonylphenyl or benzenesulfonamido)-2-(pyridyl)acetylene regioisomers” (Bioorg Med Chem, 2008) can be followed below.

Assay [1] deals with T1, Prostaglandin G/H synthase 1 (Ovis aries, UniProt P05979).
T1 sequence (P05979 whole entry): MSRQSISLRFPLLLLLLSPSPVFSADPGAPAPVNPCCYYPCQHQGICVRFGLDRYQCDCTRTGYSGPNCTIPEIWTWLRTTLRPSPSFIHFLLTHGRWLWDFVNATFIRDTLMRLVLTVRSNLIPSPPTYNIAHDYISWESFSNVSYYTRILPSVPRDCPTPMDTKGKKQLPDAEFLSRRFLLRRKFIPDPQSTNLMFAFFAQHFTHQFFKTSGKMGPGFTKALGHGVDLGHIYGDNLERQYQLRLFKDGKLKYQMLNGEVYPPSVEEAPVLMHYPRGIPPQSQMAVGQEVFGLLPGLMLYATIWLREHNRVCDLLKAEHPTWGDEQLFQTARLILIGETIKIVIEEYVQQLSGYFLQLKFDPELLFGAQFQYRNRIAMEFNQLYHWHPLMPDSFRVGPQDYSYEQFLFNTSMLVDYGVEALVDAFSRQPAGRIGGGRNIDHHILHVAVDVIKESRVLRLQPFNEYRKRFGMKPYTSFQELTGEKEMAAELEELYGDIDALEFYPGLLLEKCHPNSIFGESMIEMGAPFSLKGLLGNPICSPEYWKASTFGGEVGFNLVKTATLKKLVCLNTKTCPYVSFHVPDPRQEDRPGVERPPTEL
The assay can be described thus: Inhibition of ovine COX1 by enzyme immuno assay.

The species entered for another assay is Ovis aries. The experiment in a line: Selectivity index, ratio of IC50 for ovine COX1 to IC50 for ovine COX2.
A further assay has as its system Rattus norvegicus. The assay can be described thus: Antiinflammatory activity against carrageenan-induced foot paw edema in orally dosed rat after 3 hrs. The format is functional. As to conditions: po, read-out: ID50 (the source's name).

`Cc1cccnc1C#Cc1ccc(S(C)(=O)=O)cc1` showed a concentration for half-maximal inhibition (IC50) in assay [1] above 100 µM.
On the same count and under the same terms, for `NS(=O)(=O)c1ccc(C#Cc2ccccn2)cc1` the value was 9.3 µM.
The same measure, in the same setting: for `CS(=O)(=O)c1ccccc1C#Cc1ccncc1` the value was 0.26 µM.
For the molecule `CS(=O)(=O)c1ccc(C#Cc2ccccn2)cc1`, inhibition in assay [1] was half-maximal at 31.7 µM (IC50).
In turn, `CS(=O)(=O)c1cccc(C#Cc2ccncc2)c1` came in with an IC50 in assay [1] above 100 µM. In addition, in the assay filed under Ovis aries, the Ratio IC50 is above 312.
For the molecule `CS(=O)(=O)c1ccc(C#Cc2cccnc2)cc1`, the ED50 with Rattus norvegicus was 59.9 mg/kg. Further, the IC50 in assay [1] was found to be 3.2 µM.
In the same order, the values of `Cc1cccnc1C#Cc1ccc(S(N)(=O)=O)cc1` are 76.6 mg/kg and 1.3 µM.
For `CC(=O)Oc1ccccc1C(=O)O` [ASPIRIN], in the assay with Rattus norvegicus, the ED50 is 129 mg/kg.
Molecule `NS(=O)(=O)c1ccc(C#Cc2ccncc2)cc1` yielded an IC50 in assay [1] of 3.9 µM.
On the same count and under the same terms, for `Cc1cccnc1C#Cc1ccccc1S(C)(=O)=O` the value was 2 µM.
In the case of `CS(=O)(=O)c1cccc(C#Cc2ccccn2)c1`, the ED50 with Rattus norvegicus is 76.4 mg/kg. This molecule registered an IC50 in assay [1] of 31.6 µM.
Molecule `CS(=O)(=O)c1ccccc1C#Cc1ccccn1` had an IC50 in assay [1] of 0.28 µM. This counts as sub-micromolar.
In turn, `CS(=O)(=O)c1cccc(C#Cc2cccnc2)c1` had an IC50 in assay [1] above 100 µM. In addition, the Ratio IC50 in the assay filed under Ovis aries was above 3.1.
